Data taken from US8247211B2, “Glycopeptide antibiotics” (American Cyanamid Company, priority 2001, dated 2012).
Values after ≈ are worked out from the molar mass of the structure shown.

What was measured:
Assay in all cases: In vitro antibacterial evaluation: minimum inhibitory concentration (MIC), broth dilution method
Type in all cases: cell-based
[1] = tested on: Escherichia coli; settings: strain GC 4560
Outline: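 Inoculum: 5×10^5 CFU/mL. Range: 64-0.06 μg/mL. Medium: Muller-Hinton II […]; NCCLS M7-A2 broth dilution. Endpoint: lowest concentration inhibiting growth. Strains include methicillin-, penicillin- and/or vancomycin-resistant clinical isolates.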

[2] = tested on: Streptococcus sp.
Outline: (§1)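 Following NCCLS approved standard M7-A2, compounds are serially diluted from 64 to 0.06 μg/mL in Muller-Hinton II […] and inoculated at 5×10^5 CFU/mL; the MIC is the minimum concentration at which growth is inhibited.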

[3] = tested on: Staphylococcus sp.; settings: broth dilution, 18 hours at 35° C.
Outline: as §1

[4] = tested on: Enterococcus sp.
Outline: as §1

[5] = broth dilution, inoculum 5×10^5 CFU/mL, 18 hours at 35° C.

`CCOc1cc(C2OCC3OC(OC4C(CO)OC(Oc5ccc(CC6NC(=O)C(C(C)c7ccccc7)NC(=O)CNC(=O)C(CO)NC(=O)C(C(O)C7CNC(=N)N7C7OC(CO)C(O)C(O)C7O)NC(=O)C(C(O)C7CNC(=N)N7)NC6=O)cc5)C(O)C4O)C(O)C(O)C3O2)ccc1[N+](=O)[O-]` (stereo not drawn) [Example 167, Cyclo[glycyl-β-methylphenylalanyl-O-[4-O-[4,6-O-(3-ethoxy-4-nitrobenzylidene)hexopyranosyl]hexopyranosyl]tyrosyl-3-(2-iminoimidazolidin-4-yl)seryl-3-(3-hexopyranosyl-2-iminoimidazolidin-4-yl)serylseryl]] was tested, and the “MIC Escherichi coli (GC 4560)” value [1] was 8 mg/L (≈ 5.43 µM), the “MIC Streptococcus agalactiae (GC 4564)” value [2, 5] was 2 mg/L (≈ 1.36 µM) and the “MIC Streptococcus pneumoniae (ATCC 6301)” value [2, 5] was 1 mg/L (≈ 0.679 µM). For the same compound, the “MIC Streptococcus pneumoniae (GC 1894)” value [2, 5] was 0.25 mg/L (≈ 0.17 µM), the “MIC Streptococcus pneumoniae (GC 4565)” value [2, 5] was 1 mg/L (≈ 0.679 µM) and the “MIC Streptococcus pyogenes (GC 4563)” value [2, 5] was 1 mg/L (≈ 0.679 µM). For the same compound, the “MIC Streptococcus pneumoniae (ATCC 6301)” value ([2]; strain ATCC 6301) was 1 mg/L (≈ 0.679 µM), the “MIC Streptococcus pneumoniae (GC 1894)” value ([2]; strain GC 1894) was 0.25 mg/L (≈ 0.17 µM) and the “MIC Streptococcus pyogenes (GC 4563)” value ([2]; strain GC 4563) was 1 mg/L (≈ 0.679 µM). For the same compound, the “MIC Streptococcus agalactiae (GC 4564)” value ([2]; strain GC 4564) was 2 mg/L (≈ 1.36 µM), the “MIC Streptococcus pneumoniae (GC 4565)” value ([2]; strain GC 4565) was 1 mg/L (≈ 0.679 µM) and the “MIC Coagulase Negative Staphylococcus (GC 4547)” value ([3]; 5×10^5 CFU/mL) was 8 mg/L (≈ 5.43 µM). For the same compound, the “MIC Coagulase Negative Staphylococcus (GC 4548)” value ([3]; 5×10^5 CFU/mL) was 8 mg/L (≈ 5.43 µM), the “MIC Coagulase Negative Staphylococcus (GC 4549)” value ([3]; 5×10^5 CFU/mL) was 8 mg/L (≈ 5.43 µM) and the “MIC Coagulase Negative Staphylococcus (GC 4551)” value ([3]; 5×10^5 CFU/mL) was 16 mg/L (≈ 10.9 µM). For the same compound, the “MIC Coagulase Negative Staphylococcus (GC 6257)” value ([3]; 5×10^5 CFU/mL) was 8 mg/L (≈ 5.43 µM), the “MIC Staphylococcus aureus (ATCC 29213)” value ([3]; 5×10^5 CFU/mL) was 16 mg/L (≈ 10.9 µM) and the “MIC Staphylococcus aureus (GC 1131)” value ([3]; 5×10^5 CFU/mL) was 16 mg/L (≈ 10.9 µM). The “MIC Staphylococcus aureus (GC 3051)” value ([3]; 5×10^5 CFU/mL) was 16 mg/L (≈ 10.9 µM), the “MIC Staphylococcus aureus (GC 3053)” value ([3]; 5×10^5 CFU/mL) was 16 mg/L (≈ 10.9 µM) and the “MIC Staphylococcus aureus (GC 4541)” value ([3]; 5×10^5 CFU/mL) was 8 mg/L (≈ 5.43 µM). For the same compound, the “MIC Staphylococcus aureus (GC 4542)” value ([3]; 5×10^5 CFU/mL) was 16 mg/L (≈ 10.9 µM), the “MIC Staphylococcus aureus (GC 4544)” value ([3]; 5×10^5 CFU/mL) was 16 mg/L (≈ 10.9 µM) and the “MIC Staphylococcus aureus (GC 4545)” value ([3]; 5×10^5 CFU/mL) was 16 mg/L (≈ 10.9 µM). The “MIC Staphylococcus aureus-SMITH (GC 4543)” value ([3]; 5×10^5 CFU/mL) was 16 mg/L (≈ 10.9 µM), the “MIC Staphylococcus haemolyticus (GC 4546)” value ([3]; 5×10^5 CFU/mL) was 16 mg/L (≈ 10.9 µM) and the “MIC Staphylococcus aureus (ATCC 29213)” value ([3]; strain ATCC 29213) was 16 mg/L (≈ 10.9 µM). For the same compound, the “MIC Staphylococcus aureus (GC 1131)” value ([3]; strain GC 1131) was 16 mg/L (≈ 10.9 µM), the “MIC Staphylococcus aureus (GC 3051)” value ([3]; strain GC 3051) was 16 mg/L (≈ 10.9 µM) and the “MIC Staphylococcus aureus (GC 3053)” value ([3]; strain GC 3053) was 16 mg/L (≈ 10.9 µM). The “MIC Staphylococcus aureus (GC 4541)” value ([3]; strain GC 4541) was 8 mg/L (≈ 5.43 µM), the “MIC Staphylococcus aureus (GC 4542)” value ([3]; strain GC 4542) was 16 mg/L (≈ 10.9 µM) and the “MIC Staphylococcus aureus-SMITH (GC 4543)” value ([3]; strain GC 4543) was 16 mg/L (≈ 10.9 µM). For the same compound, the “MIC Staphylococcus aureus (GC 4544)” value ([3]; strain GC 4544) was 16 mg/L (≈ 10.9 µM), the “MIC Staphylococcus aureus (GC 4545)” value ([3]; strain GC 4545) was 16 mg/L (≈ 10.9 µM) and the “MIC Staphylococcus haemolyticus (GC 4546)” value ([3]; strain GC 4546) was 16 mg/L (≈ 10.9 µM). For the same compound, the “MIC Coagulase Negative Staphylococcus (GC 4547)” value ([3]; strain GC 4547) was 8 mg/L (≈ 5.43 µM), the “MIC Coagulase Negative Staphylococcus (GC 4548)” value ([3]; strain GC 4548) was 8 mg/L (≈ 5.43 µM) and the “MIC Coagulase Negative Staphylococcus (GC 4549)” value ([3]; strain GC 4549) was 8 mg/L (≈ 5.43 µM). The “MIC Coagulase Negative Staphylococcus (GC 4551)” value ([3]; strain GC 4551) was 16 mg/L (≈ 10.9 µM), the “MIC Coagulase Negative Staphylococcus (GC 6257)” value ([3]; strain GC 6257) was 8 mg/L (≈ 5.43 µM) and the “MIC Enterococcus avium (GC 4558)” value [4, 5] was 32 mg/L (≈ 21.7 µM). For the same compound, the “MIC Enterococcus faecalis (ATCC 29212)” value [4, 5] was 32 mg/L (≈ 21.7 µM), the “MIC Enterococcus faecalis (GC 2242)” value [4, 5] was 32 mg/L (≈ 21.7 µM) and the “MIC Enterococcus faecalis (GC 2691)” value [4, 5] was 32 mg/L (≈ 21.7 µM). For the same compound, the “MIC Enterococcus faecalis (GC 3059)” value [4, 5] was 32 mg/L (≈ 21.7 µM), the “MIC Enterococcus faecalis (GC 4552)” value [4, 5] was 32 mg/L (≈ 21.7 µM) and the “MIC Enterococcus faecalis (GC 4553)” value [4, 5] was 32 mg/L (≈ 21.7 µM). The “MIC Enterococcus faecalis (GC 4554)” value [4, 5] was 32 mg/L (≈ 21.7 µM), the “MIC Enterococcus faecalis (GC 6189)” value [4, 5] was 32 mg/L (≈ 21.7 µM) and the “MIC Enterococcus faecium (GC 2243)” value [4, 5] was 32 mg/L (≈ 21.7 µM). For the same compound, the “MIC Enterococcus faecium (GC 4556)” value [4, 5] was 32 mg/L (≈ 21.7 µM), the “MIC Enterococcus faecium (GC 4557)” value [4, 5] was 8 mg/L (≈ 5.43 µM) and the “MIC Enterococcus faecalis (ATCC 29212)” value ([4]; strain ATCC 29212) was 32 mg/L (≈ 21.7 µM). For the same compound, the “MIC Enterococcus faecalis (GC 2242)” value ([4]; strain GC 2242) was 32 mg/L (≈ 21.7 µM), the “MIC Enterococcus faecium (GC 2243)” value ([4]; strain GC 2243) was 32 mg/L (≈ 21.7 µM) and the “MIC Enterococcus faecalis (GC 2691)” value ([4]; strain GC 2691) was 32 mg/L (≈ 21.7 µM). For the same compound, the “MIC Enterococcus faecalis (GC 3059)” value ([4]; strain GC 3059) was 32 mg/L (≈ 21.7 µM), the “MIC Enterococcus faecalis (GC 4552)” value ([4]; strain GC 4552) was 32 mg/L (≈ 21.7 µM) and the “MIC Enterococcus faecalis (GC 4553)” value ([4]; strain GC 4553) was 32 mg/L (≈ 21.7 µM). For the same compound, the “MIC Enterococcus faecalis (GC 4554)” value ([4]; strain GC 4554) was 32 mg/L (≈ 21.7 µM), the “MIC Enterococcus faecium (GC 4556)” value ([4]; strain GC 4556) was 32 mg/L (≈ 21.7 µM) and the “MIC Enterococcus faecium (GC 4557)” value ([4]; strain GC 4557) was 8 mg/L (≈ 5.43 µM). For the same compound, the “MIC Enterococcus avium (GC 4558)” value ([4]; strain GC 4558) was 32 mg/L (≈ 21.7 µM) and the “MIC Enterococcus faecalis (GC 6189)” value ([4]; strain GC 6189) was 32 mg/L (≈ 21.7 µM).
